Results on eleven compounds are retold here after patent US12673924B2, “Valiolamine derivatives as glucosidase inhibitors” (Emergent Product Development Gaithersburg Inc., priority 2021, dated 2026).

Structures are written as SMILES. Some results are limits rather than exact numbers.

The assay deals with T1, recombinant alpha-glucosidase II (murine full-length glucosidase II) (Mus musculus, UniProt Q8BHN3).
T1 construct: made in house; host or cells: HEK-293T cells co-transduced with two BacMam viruses (75% alpha, 25% beta); secreted into the culture supernatant
T1 sequence (Q8BHN3 with tags, fused parts or gaps isoform Q8BHN3-2): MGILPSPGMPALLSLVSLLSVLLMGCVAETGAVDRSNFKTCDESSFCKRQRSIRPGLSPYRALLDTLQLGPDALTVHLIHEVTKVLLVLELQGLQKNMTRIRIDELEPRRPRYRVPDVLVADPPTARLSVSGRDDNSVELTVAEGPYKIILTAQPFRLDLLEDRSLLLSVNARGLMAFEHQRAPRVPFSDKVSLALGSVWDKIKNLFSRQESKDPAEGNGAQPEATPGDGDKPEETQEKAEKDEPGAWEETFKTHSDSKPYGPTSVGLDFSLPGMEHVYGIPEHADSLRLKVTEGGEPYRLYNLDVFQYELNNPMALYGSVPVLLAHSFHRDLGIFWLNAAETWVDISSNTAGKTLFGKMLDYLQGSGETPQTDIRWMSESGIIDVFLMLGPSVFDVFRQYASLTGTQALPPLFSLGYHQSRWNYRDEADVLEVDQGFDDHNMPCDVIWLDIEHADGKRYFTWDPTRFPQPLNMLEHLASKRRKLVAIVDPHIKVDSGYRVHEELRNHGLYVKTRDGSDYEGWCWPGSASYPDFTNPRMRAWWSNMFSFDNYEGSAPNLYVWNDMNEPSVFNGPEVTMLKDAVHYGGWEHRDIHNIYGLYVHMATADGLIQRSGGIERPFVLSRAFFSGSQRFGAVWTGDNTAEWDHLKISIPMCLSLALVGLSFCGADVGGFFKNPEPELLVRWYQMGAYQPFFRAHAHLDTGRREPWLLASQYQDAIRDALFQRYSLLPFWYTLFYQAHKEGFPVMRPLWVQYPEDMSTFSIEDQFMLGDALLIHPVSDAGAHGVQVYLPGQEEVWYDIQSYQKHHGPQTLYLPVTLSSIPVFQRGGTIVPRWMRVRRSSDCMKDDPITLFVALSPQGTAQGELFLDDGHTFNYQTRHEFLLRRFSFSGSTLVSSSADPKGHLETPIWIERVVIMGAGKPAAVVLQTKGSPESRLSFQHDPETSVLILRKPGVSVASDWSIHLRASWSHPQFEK
T1 sequence (O08795 with tags, fused parts or gaps partner limits assumed): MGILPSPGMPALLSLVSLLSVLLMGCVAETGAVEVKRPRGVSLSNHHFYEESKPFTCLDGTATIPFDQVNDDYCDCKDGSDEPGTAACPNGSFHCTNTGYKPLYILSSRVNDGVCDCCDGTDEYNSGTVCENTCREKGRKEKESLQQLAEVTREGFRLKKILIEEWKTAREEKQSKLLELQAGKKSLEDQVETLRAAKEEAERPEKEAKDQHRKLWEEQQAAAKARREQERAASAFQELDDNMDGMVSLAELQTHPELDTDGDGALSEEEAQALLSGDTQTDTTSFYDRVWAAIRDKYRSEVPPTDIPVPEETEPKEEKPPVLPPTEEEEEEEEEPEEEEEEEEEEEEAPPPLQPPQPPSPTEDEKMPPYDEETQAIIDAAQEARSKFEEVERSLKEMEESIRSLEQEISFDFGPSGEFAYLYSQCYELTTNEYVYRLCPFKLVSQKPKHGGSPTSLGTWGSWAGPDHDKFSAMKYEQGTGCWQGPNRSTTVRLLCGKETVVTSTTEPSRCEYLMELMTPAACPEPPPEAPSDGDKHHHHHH
Nature of the assay: Alpha-glucosidase II assay. It is filed as biochemical. Conditions: 4-methylumbelliferyl-alpha-D-pyranoside substrate, read-out: aGlc2 IC50. The text has this: Preparation of Murine Full-length Glucosidase II: Glucosidase is a heterodimeric protein consisting of alpha and beta subunits. […] A single construct was designed for each of the subunits for gene synthesis and cloning into Gateway entry vectors. The alpha subunit was appended with a Strep-affinity tag and the beta subunit was appended with a 6-His affinity tag. The entry vectors were cloned into Kemp Protein's BacMam Destination vector and the vectors were transformed into chemically competent DH10Bac E. coli cells to produce recombinant glucosidase II bacmids. Bacmid isolates for each of the subunits were obtained following two rounds of blue-white screening and they were transfected into Sf9 cells cultivated in serum-free medium (Thermo Fisher Scientific). MOI of 10 with a ratio of 75% alpha subunit and 25% beta subunit was selected for expression of glucosidase II. […] Productions and purifications of glucosidase II were carried out at scales ranging from 1-liter to 10-liters. […] In another example, production at the 10-liter scale was performed in stirred-tank bioreactors at 27° C. and 80 rpm with dissolved oxygen level maintained at 50% of oxygen in air and pH maintained between 7.0 and 7.2. For both subunits, the cells were transduced using a total MOI of 10 (75% alpha and 25% beta) and the culture supernatant was harvested at 96 hours post-transduction using centrifugation and filtration through a 0.2 micron filter.
The supernatant from a 10-liter culture was placed in a stir-jar and 25 mL of Nickel-SEPHAROSE Excel resin (GE) was added. The supernatant was stirred overnight at 25 rpm and 4° C. and the resin was collected into a column (26 mm×60 mm) and washed with 8 CV of 2×DPBS at pH 7.4. The glucosidase II protein was eluted using a linear gradient of 0-60% of 2×DPBS and 500 mM imidazole at pH 7.4. Fractions (10 mL) were collected and analyzed by SDS PAGE and Western Blot (reducing anti-His and anti-Strep). Fractions containing purified glucosidase II were pooled and concentrated for application to a SUPERDEX 200 (26 mm×600 mm) column (GE). The column buffer was PBS pH 7.2 and the concentrated eluate pool was loaded at a rate of 1 mL per minute. Fractions (3 mL) were collected and analyzed using SDS PAGE and Western Blot (reducing anti-His and anti-Strep). Fractions containing purified glucosidase II in PBS pH 7.2 were pooled and concentrated to 1 mg/mL. The final product was filter sterilized and stored at 4° C.
Alpha-glucosidase II Assay: The assay was performed by incubating recombinant enzyme alpha-glucosidase II for 60 minutes at 37° C. with multiple dilutions of test compounds. 4-methylumbelliferyl-alpha-D-pyranoside was then introduced as the substrate to the mixture. Fluorogenic 1,4-methyllumbelliferone was generated, and the reaction was stopped with the stop solution (0.5 M glycine, 0.3 M NaOH pH 10) after an incubation of 30 minutes at 37° C. […] Percent inhibition was then plotted as a function of concentration for each test compound.

A word on the IC50: it is the concentration needed to halve the response being measured. With `[N-]=[N+]=Nc1ccc(NCCCCCCN[C@H]2C[C@](O)(CO)[C@@H](O)[C@H](O)[C@H]2O)c([N+](=O)[O-])c1` [Compound 2, (1S,2S,3R,4S,5S)-5-((6-((4-azido-2-nitrophenyl)amino)hexyl)amino)-1-(hydroxymethyl)cyclohexane-1,2,3,4-tetraol], the IC50 worked out at 33.7 nM.
Regarding `COCCCCCCCCCN[C@H]1C[C@](O)(CO)[C@@H](O)[C@H](O)[C@H]1O` [Compound 3, (1S,2S,3R,4S,5S)-1-(hydroxymethyl)-5-((9-methoxynonyl)amino)cyclohexane-1,2,3,4-tetraol], the IC50 is 490 nM.
On to `O=[N+]([O-])c1cc(-n2cnnn2)ccc1NCCCCCCN[C@H]1C[C@](O)(CO)[C@@H](O)[C@H](O)[C@H]1O` [Compound 4, (1S,2S,3R,4S,5S)-1-(hydroxymethyl)-5-((6-((2-nitro-4-(1H-tetrazol-1-yl)phenyl)amino)hexyl)amino)cyclohexane-1,2,3,4-tetraol], for which the IC50 amounted to 1420 nM.
The value for `O=[N+]([O-])c1cc(-n2nccn2)ccc1NCCCCCCN[C@H]1C[C@](O)(CO)[C@@H](O)[C@H](O)[C@H]1O` [Compound 5, (1S,2S,3R,4S,5S)-1-(hydroxymethyl)-5-((6-((2-nitro-4-(2H-1,2,3-triazol-2-yl)phenyl)amino)hexyl)amino)cyclohexane-1,2,3,4-tetraol] was < 1 nM.
On to `O=[N+]([O-])c1cc(-n2ccnn2)ccc1NCCCCCCN[C@H]1C[C@](O)(CO)[C@@H](O)[C@H](O)[C@H]1O` [Compound 6, (1S,2S,3R,4S,5S)-1-(hydroxymethyl)-5-((6-((2-nitro-4-(1H-1,2,3-triazol-1-yl)phenyl)amino)hexyl)amino)cyclohexane-1,2,3,4-tetraol], for which the half-maximal inhibitory concentration (IC50) was 15.5 nM.
Turning to `O=[N+]([O-])c1cc(-c2ncccn2)ccc1NCCCCCCN[C@H]1C[C@](O)(CO)[C@@H](O)[C@H](O)[C@H]1O` [Compound 7, (1S,2S,3R,4S,5S)-1-(hydroxymethyl)-5-((6-((2-nitro-4-(pyrimidin-2-yl)phenyl)amino)hexyl)amino)cyclohexane-1,2,3,4-tetraol], the IC50 was found to be 1.1 nM.
The value for `[N-]=[N+]=Nc1ccc(NCCCCN[C@H]2C[C@](O)(CO)[C@@H](O)[C@H](O)[C@H]2O)c([N+](=O)[O-])c1` [Compound 8, (1S,2S,3R,4S,5S)-5-((4-((4-azido-2-nitrophenyl)amino)butyl)amino)-1-(hydroxymethyl)cyclohexane-1,2,3,4-tetraol] was 1010 nM; that for `[N-]=[N+]=Nc1ccc(NCCCCCN[C@H]2C[C@](O)(CO)[C@@H](O)[C@H](O)[C@H]2O)c([N+](=O)[O-])c1` [Compound 9, (1S,2S,3R,4S,5S)-5-((5-((4-azido-2-nitrophenyl)amino)pentyl)amino)-1-(hydroxymethyl)cyclohexane-1,2,3,4-tetraol] was 27 nM.
`[N-]=[N+]=Nc1ccc(NCCOCCN[C@H]2C[C@](O)(CO)[C@@H](O)[C@H](O)[C@H]2O)c([N+](=O)[O-])c1` [Compound 10, (1S,2S,3R,4S,5S)-5-((2-(2-((4-azido-2-nitrophenyl)amino)ethoxy)ethyl)amino)-1-(hydroxymethyl)cyclohexane-1,2,3,4-tetraol]: the concentration for half-maximal inhibition (IC50) stood at 37000 nM.
The value for `O=C(O)CCCCN[C@H]1C[C@](O)(CO)[C@@H](O)[C@H](O)[C@H]1O` [Compound 11, 5-(((1S,2S,3R,4S,5S)-2,3,4,5-tetrahydroxy-5-(hydroxymethyl)cyclohexyl)amino)pentanoic acid] was > 100000 nM.
The value for `N[C@H]1C[C@](O)(CO)[C@@H](O)[C@H](O)[C@H]1O` [Valiolamine] was > 100000 nM.
